According to PubChem BioAssay (NCI):
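Assay format: 96-well plates, 48-hour exposure. TGI: total growth inhibition.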

Columns and labels:
Experiment in all cases: DTP human tumour cell line panel, 48 h
DMS 273 small cell lung = system: DMS 273 small cell lung
CCRF-CEM leukemia = system: CCRF-CEM leukemia
SNB-78 CNS = system: SNB-78 CNS
786-0 renal = system: 786-0 renal
K-562 leukemia = system: K-562 leukemia
RXF 393 renal = system: RXF 393 renal
SNB-19 CNS = system: SNB-19 CNS
UO-31 renal = system: UO-31 renal
SK-MEL-5 melanoma = system: SK-MEL-5 melanoma
TK-10 renal = system: TK-10 renal
HT29 colon = system: HT29 colon
SW-620 colon = system: SW-620 colon
UACC-257 melanoma = system: UACC-257 melanoma
SK-MEL-28 melanoma = system: SK-MEL-28 melanoma
MOLT-4 leukemia = system: MOLT-4 leukemia
HL-60(TB) leukemia = system: HL-60(TB) leukemia
CAKI-1 renal = system: CAKI-1 renal
IGROV1 ovarian = system: IGROV1 ovarian
XF 498 CNS = system: XF 498 CNS
EKVX NSCLC = system: EKVX NSCLC
HOP-92 NSCLC = system: HOP-92 NSCLC
SNB-75 CNS = system: SNB-75 CNS
U251 CNS = system: U251 CNS
A498 renal = system: A498 renal
SR leukemia = system: SR leukemia
OVCAR-4 ovarian = system: OVCAR-4 ovarian
MALME-3M melanoma = system: MALME-3M melanoma
LOX IMVI melanoma = system: LOX IMVI melanoma
NCI-H460 lung = system: NCI-H460 lung
UACC-62 melanoma = system: UACC-62 melanoma
M19-MEL melanoma = system: M19-MEL melanoma
NCI-H226 lung = system: NCI-H226 lung
NCI-H23 lung = system: NCI-H23 lung
OVCAR-8 ovarian = system: OVCAR-8 ovarian
RPMI-8226 leukemia = system: RPMI-8226 leukemia
OVCAR-3 ovarian = system: OVCAR-3 ovarian
HCC-2998 colon = system: HCC-2998 colon
HCT-15 colon = system: HCT-15 colon
SF-268 CNS = system: SF-268 CNS
ACHN renal = system: ACHN renal
SK-MEL-2 melanoma = system: SK-MEL-2 melanoma
DLD-1 colon = system: DLD-1 colon
KM20L2 colon = system: KM20L2 colon
SF-295 CNS = system: SF-295 CNS
SN12C renal = system: SN12C renal
M14 melanoma = system: M14 melanoma
A549 NSCLC = system: A549 NSCLC
HCT-116 colon = system: HCT-116 colon
SF-539 CNS = system: SF-539 CNS
OVCAR-5 ovarian = system: OVCAR-5 ovarian
DMS 114 small cell lung = system: DMS 114 small cell lung
LXFL 529 NSCLC = system: LXFL 529 NSCLC
MDA-MB-231 breast = system: MDA-MB-231 breast
COLO 205 colon = system: COLO 205 colon
BT-549 breast = system: BT-549 breast
PC-3 prostate = system: PC-3 prostate
NCI/ADR-RES ovarian = system: NCI/ADR-RES ovarian
MDA-MB-435 = system: MDA-MB-435
NCI-H522 lung = system: NCI-H522 lung
MCF7 breast = system: MCF7 breast
T-47D breast = system: T-47D breast
SK-OV-3 ovarian = system: SK-OV-3 ovarian
HOP-62 NSCLC = system: HOP-62 NSCLC
HS 578T breast = system: HS 578T breast
MDA-N = system: MDA-N
KM12 colon = system: KM12 colon
DU-145 prostate = system: DU-145 prostate

S=c1nc(COc2ccc(Cl)cc2Cl)[nH][nH]1
TGI (DMS 273 small cell lung): > 100 µM
TGI (CCRF-CEM leukemia): > 100 µM
TGI (SNB-78 CNS): > 100 µM
TGI (786-0 renal): > 100 µM
TGI (K-562 leukemia): > 100 µM
TGI (RXF 393 renal): > 100 µM
TGI (SNB-19 CNS): > 100 µM
TGI (UO-31 renal): > 100 µM
TGI (SK-MEL-5 melanoma): > 100 µM
TGI (TK-10 renal): > 100 µM
TGI (HT29 colon): > 100 µM
TGI (SW-620 colon): > 100 µM
TGI (UACC-257 melanoma): > 100 µM
TGI (SK-MEL-28 melanoma): > 100 µM
TGI (MOLT-4 leukemia): > 100 µM
TGI (HL-60(TB) leukemia): 88.8 µM
TGI (CAKI-1 renal): > 100 µM
TGI (IGROV1 ovarian): > 100 µM
TGI (XF 498 CNS): > 100 µM
TGI (EKVX NSCLC): > 100 µM
TGI (HOP-92 NSCLC): > 100 µM
TGI (SNB-75 CNS): > 100 µM
TGI (U251 CNS): > 100 µM
TGI (A498 renal): > 100 µM
TGI (SR leukemia): > 100 µM
TGI (OVCAR-4 ovarian): > 100 µM
TGI (MALME-3M melanoma): > 100 µM
TGI (LOX IMVI melanoma): > 100 µM
TGI (NCI-H460 lung): > 100 µM
TGI (UACC-62 melanoma): > 100 µM
TGI (M19-MEL melanoma): > 100 µM
TGI (NCI-H226 lung): > 100 µM
TGI (NCI-H23 lung): > 100 µM
TGI (OVCAR-8 ovarian): > 100 µM
TGI (RPMI-8226 leukemia): > 100 µM
TGI (OVCAR-3 ovarian): > 100 µM
TGI (HCC-2998 colon): > 100 µM
TGI (HCT-15 colon): > 100 µM
TGI (SF-268 CNS): > 100 µM
TGI (ACHN renal): > 100 µM
TGI (SK-MEL-2 melanoma): > 100 µM
TGI (DLD-1 colon): > 100 µM
TGI (KM20L2 colon): > 100 µM
TGI (SF-295 CNS): > 100 µM
TGI (SN12C renal): > 100 µM
TGI (M14 melanoma): > 100 µM
TGI (A549 NSCLC): > 100 µM
TGI (HCT-116 colon): > 100 µM
TGI (SF-539 CNS): > 100 µM
TGI (OVCAR-5 ovarian): > 100 µM
TGI (DMS 114 small cell lung): > 100 µM
TGI (LXFL 529 NSCLC): > 100 µM

CC12CC3OC(=O)C1COC14OC5(C2C1=O)C(O)(CCC1C4CC2OC24CC=CC(=O)C14C)C(=O)OC35C (stereo not given)
TGI (MDA-MB-231 breast): 37 µM
TGI (COLO 205 colon): 22.1 µM
TGI (CCRF-CEM leukemia): 24.1 µM
TGI (786-0 renal): 28.7 µM
TGI (K-562 leukemia): > 100 µM
TGI (RXF 393 renal): 13.4 µM
TGI (SNB-19 CNS): 44.9 µM
TGI (UO-31 renal): 31.1 µM
TGI (SK-MEL-5 melanoma): 11.5 µM
TGI (BT-549 breast): 9.66 µM
TGI (TK-10 renal): 30.8 µM
TGI (HT29 colon): > 100 µM
TGI (PC-3 prostate): 40.1 µM
TGI (NCI/ADR-RES ovarian): > 100 µM
TGI (MDA-MB-435): 32.9 µM
TGI (SW-620 colon): 34.5 µM
TGI (UACC-257 melanoma): 39.4 µM
TGI (SK-MEL-28 melanoma): 24.7 µM
TGI (MOLT-4 leukemia): 66.9 µM
TGI (HL-60(TB) leukemia): 28.7 µM
TGI (CAKI-1 renal): 25.8 µM
TGI (IGROV1 ovarian): 42.8 µM
TGI (EKVX NSCLC): > 100 µM
TGI (HOP-92 NSCLC): 68.1 µM
TGI (NCI-H522 lung): 19.8 µM
TGI (SNB-75 CNS): > 100 µM
TGI (U251 CNS): 35.9 µM
TGI (A498 renal): 43.3 µM
TGI (SR leukemia): 48.3 µM
TGI (OVCAR-4 ovarian): > 100 µM
TGI (MALME-3M melanoma): 52.8 µM
TGI (LOX IMVI melanoma): 29.5 µM
TGI (NCI-H460 lung): > 100 µM
TGI (UACC-62 melanoma): 27.6 µM
TGI (MCF7 breast): 40.9 µM
TGI (T-47D breast): 37.3 µM
TGI (NCI-H23 lung): 33.1 µM
TGI (OVCAR-8 ovarian): > 100 µM
TGI (RPMI-8226 leukemia): 71.4 µM
TGI (OVCAR-3 ovarian): 28.7 µM
TGI (HCC-2998 colon): 32.8 µM
TGI (SK-OV-3 ovarian): > 100 µM
TGI (HCT-15 colon): 37.7 µM
TGI (HOP-62 NSCLC): 39.4 µM
TGI (SF-268 CNS): > 100 µM
TGI (ACHN renal): 30.8 µM
TGI (SK-MEL-2 melanoma): 28.1 µM
TGI (HS 578T breast): > 100 µM
TGI (MDA-N): 29.4 µM
TGI (SF-295 CNS): 69.5 µM
TGI (SN12C renal): 60.1 µM
TGI (KM12 colon): 36.5 µM
TGI (M14 melanoma): 44 µM
TGI (A549 NSCLC): > 100 µM
TGI (HCT-116 colon): 29.2 µM
TGI (SF-539 CNS): 28.4 µM
TGI (OVCAR-5 ovarian): 34.9 µM
TGI (DU-145 prostate): 27.7 µM
